Drawing on patent publication US8269026B2, “Lupane derivatives useful for treating HIV” (priority 2008, dated 2012), this text covers IC50 for 28 compounds.

The structures appear in SMILES notation.

One may read the IC50 as the concentration at which inhibition is half-maximal.

The first experiment relates to HIV-1 (HIVIIIB) replication in MT2 cell line. Put plainly: HIV-1 replication in MT2 cell line with and without 30% human serum (viral RT activity in supernatant). The experiment is classed as cell-based. The conditions noted are these: Human immunodeficiency virus 1, MT2 cells, with 30% human serum, average IC50 if tested more than once, read-out: MT2 (HIVIIIB) with HS 30% IC50 range. The method, boiled down:
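MT2 cells infected with HIV-1 IIIB at MOI 0.5 for 3 h, washed, seeded at 0.5×10^6/ml in RPMI/10% FBS with serially diluted compound, with or without 30% human serum; medium and compound refreshed on day 3. RT activity in supernatant at day 5; IC50 and IC90 derived.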
On to `CC(C)C1=C2C3CCC4[C@@]5(C)CC[C@H](OC(=O)CC(C)(C)C(=O)O)C(C)(C)C5CC[C@@]4(C)[C@]3(C)CC[C@@]2(NC(=O)[C@@H]2CCCN2C(C)C)CC1=O` (some centres unmarked) [19-56], for which the IC50 is below 199 nM.

For the compound `CC(C)C1=C2C3CCC4[C@@]5(C)CC[C@H](OC(=O)CC(C)(C)C(=O)O)C(C)(C)C5CC[C@@]4(C)[C@]3(C)CC[C@@]2(NC(=O)[C@@H]2CCCN2C(=O)OC(C)(C)C)CC1=O` (some centres unmarked) [19-57], the IC50 was below 199 nM.

Turning to `CC(C)C1=C2C3CCC4[C@@]5(C)CC[C@H](OC(=O)CC(C)(C)C(=O)O)C(C)(C)C5CC[C@@]4(C)[C@]3(C)CC[C@@]2(NC(=O)[C@H]2CCCN2C(=O)OC(C)(C)C)CC1=O` (some centres unmarked) [19-58], the IC50 was below 199 nM.

For the compound `CC(C)C1=C2C3CCC4[C@@]5(C)CC[C@H](OC(=O)CC(C)(C)C(=O)O)C(C)(C)C5CC[C@@]4(C)[C@]3(C)CC[C@@]2(NC(=O)Cn2ccnc2)CC1=O` (stereo partly drawn) [19-60, 3β-O-(3′,3′-Dimethylsuccinyl)-17β-(1-imidazole-acetamido)-21-oxolup-18-ene], the IC50 is below 199 nM.

In the case of `CC(C)C1=C2C3CCC4[C@@]5(C)CC[C@H](OC(=O)CC(C)(C)C(=O)O)C(C)(C)C5CC[C@@]4(C)[C@]3(C)CC[C@@]2(NC(=O)c2ccccc2C(=O)O)CC1=O` (stereo partly drawn) [19-61, 3β-O-(3′,3′-Dimethylsuccinyl)-17β-(2-carboxy-benzamido)-21-oxolup-18-ene], the IC50 was below 199 nM.

On to `CC(C)C1=C2C3CCC4[C@@]5(C)CC[C@H](OC(=O)CC(C)(C)C(=O)O)C(C)(C)C5CC[C@@]4(C)[C@]3(C)CC[C@@]2(NC(=O)c2nnc(C3CC3)o2)CC1=O` (stereo partly drawn) [19-62, 3β-O-(3′,3′-Dimethylsuccinyl)-17β-(5-cyclopropyl-[1,3,4]oxadiazole-2-amido)-21-oxolup-18-ene], for which the IC50 is below 199 nM.

For the compound `CC(C)C1=C2C3CCC4[C@@]5(C)CC[C@H](OC(=O)CC(C)(C)C(=O)O)C(C)(C)C5CC[C@@]4(C)[C@]3(C)CC[C@@]2(NC(=O)c2nnc(-c3ccccc3)o2)CC1=O` (stereo partly drawn) [19-63, 3β-O-(3′,3′-Dimethylsuccinyl)-17β-(5-phenyl-[1,3,4]oxadiazole-2-amido)-21-oxolup-18-ene], the IC50 is below 199 nM.

In the case of `Cc1cc(C(=O)N[C@@]23CC[C@]4(C)[C@H](CC[C@@H]5[C@@]6(C)CC[C@H](OC(=O)CC(C)(C)C(=O)O)C(C)(C)[C@@H]6CC[C@]54C)C2=C(C(C)C)C(=O)C3)cc(C)n1` [19-64, 3β-O-(3′,3′-Dimethylsuccinyl)-17β-(2,6-dimethylpyridin-4-yl)amido-21-oxolup-18-ene], the IC50 was below 199 nM.

As to `CC(C)C1=C2[C@H]3CC[C@@H]4[C@@]5(C)CC[C@H](OC(=O)CC(C)(C)C(=O)O)C(C)(C)[C@@H]5CC[C@@]4(C)[C@]3(C)CC[C@@]2(NC(=O)[C@@H]2CCCCN2C)CC1=O` [19-65, 3β-O-(3′,3′-Dimethylsuccinyl)-17β-((S)-1-methylpiperidine-2-amido)-21-oxolup-18-ene], the IC50 is below 199 nM.

As for `CC(C)C1=C2[C@H]3CC[C@@H]4[C@@]5(C)CC[C@H](OC(=O)CC(C)(C)C(=O)O)C(C)(C)[C@@H]5CC[C@@]4(C)[C@]3(C)CC[C@@]2(NC(=O)[C@H]2CCCCN2C)CC1=O` [19-66, 3β-O-(3′,3′-Dimethylsuccinyl)-17β-((R)-1-methylpiperidine-2-amido)-21-oxolup-18-ene], the IC50 was below 199 nM.

Turning to `Cc1noc(C(=O)N[C@@]23CC[C@]4(C)C(CCC5[C@@]6(C)CC[C@H](OC(=O)CC(C)(C)C(=O)O)C(C)(C)C6CC[C@]54C)C2=C(C(C)C)C(=O)C3)n1` (stereo partly drawn) [19-67, 3β-O-(3′,3′-Dimethylsuccinyl)-17β-(3-methyl-[1,2,4]oxadiazole-5-amido)-21-oxolup-18-ene], the IC50 was below 199 nM.

For the compound `Cc1nc(C(=O)N[C@@]23CC[C@]4(C)C(CCC5[C@@]6(C)CC[C@H](OC(=O)CC(C)(C)C(=O)O)C(C)(C)C6CC[C@]54C)C2=C(C(C)C)C(=O)C3)no1` (stereo partly drawn) [19-68, 3β-O-(3′,3′-Dimethylsuccinyl)-17β-(5-methyl-[1,2,4]oxadiazole-3-amido)-21-oxolup-18-ene], the IC50 was below 199 nM.

For the compound `Cc1nnc(C(=O)N(C)[C@@]23CC[C@]4(C)[C@H](CC[C@@H]5[C@@]6(C)CC[C@H](OC(=O)CC(C)(C)C(=O)O)C(C)(C)[C@@H]6CC[C@]54C)C2=C(C(C)C)C(=O)C3)o1` [19-69, 3β-O-(3′,3′-Dimethylsuccinyl)-17β-[methyl-(5-methyl-[1,3,4]oxadiazole-2-carbonyl)-amino]-21-oxolup-18-ene], the IC50 was below 199 nM.

In the case of `CC(C)C1=C2C3CCC4[C@@]5(C)CC[C@H](OC(=O)CC(C)(C)C(=O)O)C(C)(C)C5CC[C@@]4(C)[C@]3(C)CC[C@@]2(NC(=O)C2CC3CCC(C2)O3)CC1=O` (stereo partly drawn) [19-70, 3β-O-(3′,3′-Dimethylsuccinyl)-17β-(8β-oxa-bicyclo[3.2.1]octane-3-amido)-21-oxolup-18-ene], the IC50 was below 199 nM.

As to `Cc1nc(C(=O)N[C@@]23CC[C@]4(C)C(CCC5[C@@]6(C)CC[C@H](OC(=O)CC(C)(C)C(=O)O)C(C)(C)C6CC[C@]54C)C2=C(C(C)C)C(=O)C3)cs1` (stereo partly drawn) [19-72, 3β-O-(3′,3′-Dimethylsuccinyl)-17β-(2-methyl-1,3-thiazole-4-amido)-21-oxolup-18-ene], the IC50 was below 199 nM.

On to `CC(C)C1=C2C3CCC4[C@@]5(C)CC[C@H](OC(=O)CC(C)(C)C(=O)O)C(C)(C)C5CC[C@@]4(C)[C@]3(C)CC[C@@]2(NC(=O)CN2CCC2)CC1=O` (stereo partly drawn) [19-73, 3β-O-(3′,3′-Dimethylsuccinyl)-17β-(1-azetidin-acetamido)-21-oxolup-18-ene], for which the IC50 is below 199 nM.

In the case of `CC(C)C1=C2C3CCC4[C@@]5(C)CC[C@H](OC(=O)CC(C)(C)C(=O)O)C(C)(C)C5CC[C@@]4(C)[C@]3(C)CC[C@@]2(NC(=O)C(=O)N(C)C)CC1=O` (stereo partly drawn) [19-74, 3β-O-(3′,3′-Dimethylsuccinyl)-17β-(N′,N′-dimethyl-oxalamido)-21-oxolup-18-ene], the IC50 is below 199 nM.

As to `Cc1nnc(C(=O)N[C@@]23CC[C@]4(C)C(CCC5[C@@]6(C)CC[C@H](OC(=O)CC(C)(C)CC(=O)O)C(C)(C)C6CC[C@]54C)C2=C(C(C)C)C(=O)C3)o1` (stereo partly drawn) [19-75, 3β-O-(3′,3′-Dimethylglutaryl)-17β-(5-methyl-[1,3,4]oxadiazole-2-amido)-21-oxolup-18-ene], the IC50 was below 199 nM.

With `Cc1nc(C(=O)N[C@@]23CC[C@]4(C)C(CCC5[C@@]6(C)CC[C@H](OC(=O)CC(C)(C)C(=O)O)C(C)(C)C6CC[C@]54C)C2=C(C(C)C)C(=O)C3)co1` (stereo partly drawn) [19-76, 3β-O-(3′,3′-Dimethylsuccinyl)-17β-(2-methyl-1,3-oxazole-4-amido)-21-oxolup-18-ene], the IC50 was below 199 nM.

With `Cc1ccc(C(=O)N[C@@]23CC[C@]4(C)C(CCC5[C@@]6(C)CC[C@H](OC(=O)CC(C)(C)C(=O)O)C(C)(C)C6CC[C@]54C)C2=C(C(C)C)C(=O)C3)s1` (stereo partly drawn) [19-77, 3β-O-(3′,3′-Dimethylsuccinyl)-17β-(5-methyl-thiophene-2-amido)-21-oxolup-18-ene], the IC50 is below 199 nM.

For the compound `CC(C)C1=C2C3CCC4[C@@]5(C)CC[C@H](OC(=O)CC(C)(C)C(=O)O)C(C)(C)C5CC[C@@]4(C)[C@]3(C)CC[C@@]2(NC(=O)c2ccsc2)CC1=O` (stereo partly drawn) [19-78, 3β-O-(3′,3′-Dimethylsuccinyl)-17β-(thiophene-3-amido)-21-oxolup-18-ene], the IC50 was below 199 nM.

As for `CCc1nnc(C(=O)N[C@@]23CC[C@]4(C)C(CCC5[C@@]6(C)CC[C@H](OC(=O)CC(C)(C)C(=O)O)C(C)(C)C6CC[C@]54C)C2=C(C(C)C)C(=O)C3)o1` (stereo partly drawn) [19-79, 3β-O-(3′,3′-Dimethylsuccinyl)-17β-(5-ethyl-[1,3,4]-oxadiazole-2-amido)-21-oxolup-18-ene], the IC50 was below 199 nM.

With `Cc1cnc(C(=O)N[C@@]23CC[C@]4(C)C(CCC5[C@@]6(C)CC[C@H](OC(=O)CC(C)(C)C(=O)O)C(C)(C)C6CC[C@]54C)C2=C(C(C)C)C(=O)C3)o1` (stereo partly drawn) [19-80, 3β-O-(3′,3′-Dimethylsuccinyl)-17β-(5-methyl-[1,3]-oxazole-2-amido)-21-oxolup-18-ene], the IC50 is below 199 nM.

As to `Cc1nnc(C(=O)N[C@@]23CC[C@]4(C)C(CCC5[C@@]6(C)CC[C@H](OC(=O)[C@H]7CCC[C@@H](C(=O)O)C7)C(C)(C)C6CC[C@]54C)C2=C(C(C)C)C(=O)C3)o1` (stereo partly drawn) [19-81, 3β-O-(cis-Cyclohexane-3′-carboxylic acid-1′-carboxyl)-17β-[(5-methyl-[1,3,4]oxadiazol-2-carbonyl)-amino]-21-oxolup-18-ene], the IC50 is 200 to 999 nM.

Take `CC(C)C1=C2C3CCC4[C@@]5(C)CC[C@H](OC(=O)CC(C)(C)C(=O)O)C(C)(C)C5CC[C@@]4(C)[C@]3(C)CC[C@@]2(NC(=O)c2cn[nH]c2)CC1=O` (stereo partly drawn) [19-82, 3β-O-(3′,3′-Dimethylsuccinyl)-17β-(1H-pyrazole-4-amido)-21-oxolup-18-ene]: the IC50 was below 199 nM.

In the case of `CC(C)C1=C2C3CCC4[C@@]5(C)CC[C@H](OC(=O)CC(C)(C)C(=O)O)C(C)(C)C5CC[C@@]4(C)[C@]3(C)CC[C@@]2(NC(=O)c2nnc(C(C)C)o2)CC1=O` (stereo partly drawn) [19-84, 3β-O-(3′,3′-Dimethylsuccinyl)-17β-(5-isopropyl-[1,3,4]-oxadiazole-2-amido)-21-oxolup-18-ene], the IC50 was below 199 nM.

With `COC(=O)N[C@@]12CC[C@]3(C)[C@H](CC[C@@H]4[C@@]5(C)CC[C@H](OC(=O)CC(C)(C)C(=O)O)C(C)(C)[C@@H]5CC[C@]43C)C1=C(C(C)C)C(=O)C2` [20-1, 3β-O-(3′,3′-Dimethylsuccinyl)-17β-nnethoxycarbonylamino-21-oxolup-18-ene], the IC50 is below 199 nM.

Still in this experiment, the particulars now being: Human immunodeficiency virus 1, MT2 cells, without human serum, average IC50 if tested more than once, read-out: MT2 (HIVIIIB) IC50 range.
With `COC(=O)N[C@@]12CC[C@]3(C)[C@H](CC[C@@H]4[C@@]5(C)CC[C@H](OC(=O)CC(C)(C)C(=O)O)C(C)(C)[C@@H]5CC[C@]43C)C1=C(C(C)C)C(=O)C2` [20-1, 3β-O-(3′,3′-Dimethylsuccinyl)-17β-nnethoxycarbonylamino-21-oxolup-18-ene], the IC50 is below 199 nM.

The experiment is the same for the next values; noted with them: MT2 cells, with 30% human serum, average IC50 if tested more than once, read-out: MT2 (HIVIIIB) with HS 30% IC50 range.
With `CC(C)C1=C2C3CCC4[C@@]5(C)CC[C@H](OC(=O)CC(C)(C)C(=O)O)C(C)(C)C5CC[C@@]4(C)[C@]3(C)CC[C@@]2(NC(=O)C2CC3CCC(C2)O3)CC1=O` (stereo partly drawn) [19-71, 3β-O-(3′,3′-Dimethylsuccinyl)-17β-(8α-oxa-bicyclo[3.2.1]octane-3-amido)-21-oxolup-18-ene], the half-maximal inhibitory concentration (IC50) is below 199 nM.
